Reference: patent publication US8410302B2, “Methoxyimino compounds and fungicide composition comprising same” (Kyung Nong Corporation, priority 2007, dated 2013)

Columns and labels:
[1] = test system: Phytophthora infestans; assay: whole plant or invertebrate; type: in vivo; conditions: for pest or weed control at 2 ppm / pest or weed control at 10 ppm / pest or weed control at 50 ppm / pest or weed control at 100 ppm: Phytophthora infestans, in Solanum lycopersicum, read-out: TLB control value (C.V.); for TLB control value (C.V.): tomato late blight
[2] = test system: Puccinia recondita; assay: Fungicidal activity against wheat leaf rust (WLR) disease, control value; type: in vivo; conditions: wheat leaf rust; for pest or weed control at 2 ppm / pest or weed control at 10 ppm / pest or weed control at 50 ppm / pest or weed control at 100 ppm: read-out: WLR control value (C.V.)
[3] = test system: Erysiphae graminis; assay: Fungicidal activity against barley powdery mildew (BPM) disease, control value; type: in vivo; conditions: barley powdery mildew; for pest or weed control at 2 ppm / pest or weed control at 10 ppm / pest or weed control at 50 ppm / pest or weed control at 100 ppm: Hordeum vulgare, 168 h, read-out: BPM control value (C.V.)
[4] = test system: Pyricularia oryzae Carvara KA301; assay: whole plant or invertebrate; type: in vivo; conditions: for pest or weed control at 2 ppm / pest or weed control at 10 ppm / pest or weed control at 50 ppm / pest or weed control at 100 ppm: Pyricularia oryzae, read-out: RCB control value (C.V.); for RCB control value (C.V.): rice blast
[5] = test system: Botrytis cinerae; assay: Fungicidal activity against cucumber gray mold rot (CGM) disease, control value; type: in vivo; conditions: 100 ppm, cucumber gray mold rot; for pest or weed control at 100 ppm: Botrytis, read-out: CGM control value (C.V.)
[6] = test system: Rhizoctonia solani AG-1; assay: Fungicidal activity against rice sheath blight (RSB) disease, control value; conditions: for pest or weed control at 2 ppm / pest or weed control at 10 ppm / pest or weed control at 50 ppm / pest or weed control at 100 ppm: Rhizoctonia solani, AG1, in Oryza sativa, read-out: RSB control value (C.V.); for RSB control value (C.V.): rice sheath blight

With `CNC(=O)/C(=N/OC)c1ccccc1COc1c(C)cccc1C=C(Cl)Cl` [Example 50, (E)-2-(2-((2-(2,2-dichlorovinyl)-6-methylphenoxy)methyl)phenyl)-2-methoxyimino-N-methylacetamide] as the molecule, how does the pest or weed control at 2 ppm [1] read?
The pest or weed control at 2 ppm was 90%.

What about the pest or weed control at 10 ppm [1] of the same molecule?
Its pest or weed control at 10 ppm is 99%.

What about the pest or weed control at 50 ppm [1] of the same molecule?
The pest or weed control at 50 ppm was 100%.

What about the pest or weed control at 100 ppm [1] of the same molecule?
The pest or weed control at 100 ppm was 100%.

What about the pest or weed control at 2 ppm ([2]; 2 ppm) of the same molecule?
The pest or weed control at 2 ppm was 100%.

What about the pest or weed control at 10 ppm ([2]; 10 ppm) of the same molecule?
Its pest or weed control at 10 ppm is 100%.

What about the pest or weed control at 50 ppm ([2]; 50 ppm) of the same molecule?
The pest or weed control at 50 ppm was 100%.

What about the pest or weed control at 100 ppm ([2]; 100 ppm) of the same molecule?
The pest or weed control at 100 ppm was 100%.

And the pest or weed control at 2 ppm ([3]; 2 ppm)?
Its pest or weed control at 2 ppm is 100%.

What about the pest or weed control at 10 ppm ([3]; 10 ppm) of the same molecule?
The pest or weed control at 10 ppm was 100%.

And the pest or weed control at 50 ppm ([3]; 50 ppm)?
Its pest or weed control at 50 ppm is 100%.

What about the pest or weed control at 100 ppm ([3]; 100 ppm) of the same molecule?
The pest or weed control at 100 ppm was 100%.

And the pest or weed control at 2 ppm [4]?
The pest or weed control at 2 ppm was 85%.

What about the pest or weed control at 10 ppm [4] of the same molecule?
The pest or weed control at 10 ppm was 98%.

And the pest or weed control at 50 ppm [4]?
The pest or weed control at 50 ppm was 100%.

And the pest or weed control at 100 ppm [4]?
Its pest or weed control at 100 ppm is 100%.

And the pest or weed control at 100 ppm [5]?
The pest or weed control at 100 ppm was 20%.

And the pest or weed control at 2 ppm [6]?
Its pest or weed control at 2 ppm is 95%.

What about the pest or weed control at 10 ppm [6] of the same molecule?
The pest or weed control at 10 ppm was 98%.

What about the pest or weed control at 50 ppm [6] of the same molecule?
The pest or weed control at 50 ppm was 100%.

What about the pest or weed control at 100 ppm [6] of the same molecule?
The pest or weed control at 100 ppm was 100%.

Which results are given for `CO/N=C(/C(=O)OC)c1ccccc1COc1cccc(C=C(F)Cl)c1` [Example 11, methyl-(2E)-2-(2-((3-(2-chloro-2-fluorovinyl)phenoxy)methyl)phenyl)-2-methoxyiminoacetate]?
pest or weed control at 100 ppm [1]: 60%; pest or weed control at 10 ppm ([2]; 10 ppm): 40%; pest or weed control at 50 ppm ([2]; 50 ppm): 90%; pest or weed control at 100 ppm ([2]; 100 ppm): 100%; pest or weed control at 50 ppm ([3]; 50 ppm): 60%; pest or weed control at 100 ppm ([3]; 100 ppm): 90%; pest or weed control at 50 ppm [4]: 70%; pest or weed control at 100 ppm [4]: 95%; pest or weed control at 100 ppm [5]: 43%; pest or weed control at 100 ppm [6]: 30%

Which “TLB control value (C.V.)” value ([1]; 2 ppm) does the source give for `CNC(=O)/C(=N/OC)c1ccccc1CON=C(C)c1ccc(C=C(Cl)Cl)cc1` [Example 22, (E)-2-[[[[[2-[4-(2,2-dichlorovinyl)phenyl](1-methyl)methylidene]amino]oxy]methyl]phenyl]-2-methoxyimino-N-methylacetamide] here?
Its value is 90%.

And the “TLB control value (C.V.)” value ([1]; 10 ppm)?
The value was 100%.

And the “TLB control value (C.V.)” value ([1]; 50 ppm)?
The value was 100%.

What about the “TLB control value (C.V.)” value ([1]; 100 ppm) of the same molecule?
Its value is 100%.

What about the “WLR control value (C.V.)” value ([2]; 2 ppm) of the same molecule?
Its value is 100%.

And the “WLR control value (C.V.)” value ([2]; 10 ppm)?
Its value is 100%.

And the “WLR control value (C.V.)” value ([2]; 50 ppm)?
Its value is 100%.

What about the “WLR control value (C.V.)” value ([2]; 100 ppm) of the same molecule?
Its value is 100%.

What about the “BPM control value (C.V.)” value ([3]; 2 ppm) of the same molecule?
The value was 98%.

What about the “BPM control value (C.V.)” value ([3]; 10 ppm) of the same molecule?
Its value is 100%.

What about the “BPM control value (C.V.)” value ([3]; 50 ppm) of the same molecule?
The value was 100%.

What about the “BPM control value (C.V.)” value ([3]; 100 ppm) of the same molecule?
Its value is 100%.

And the “RCB control value (C.V.)” value ([4]; 2 ppm)?
The value was 100%.

And the “RCB control value (C.V.)” value ([4]; 10 ppm)?
The value was 100%.

And the “RCB control value (C.V.)” value ([4]; 50 ppm)?
Its value is 100%.

What about the “RCB control value (C.V.)” value ([4]; 100 ppm) of the same molecule?
Its value is 100%.

What about the “CGM control value (C.V.)” value [5] of the same molecule?
Its value is 45%.

And the “RSB control value (C.V.)” value ([6]; 2 ppm)?
The value was 90%.

And the “RSB control value (C.V.)” value ([6]; 10 ppm)?
The value was 98%.

And the “RSB control value (C.V.)” value ([6]; 50 ppm)?
The value was 100%.

And the “RSB control value (C.V.)” value ([6]; 100 ppm)?
The value was 100%.

Which results are given for `CNC(=O)/C(=N/OC)c1ccccc1CON=C(C)c1ccc(C=C(Cl)Br)cc1` [Example 38, (E)-2-[[[[[2-[4-(2-bromo-2-chlorovinyl)phenyl](1-methyl)methylidene]amino]oxy]methyl]phenyl]-2-methoxyimino-N-methylacetamide]?
TLB control value (C.V.) ([1]; 2 ppm): 30%; TLB control value (C.V.) ([1]; 10 ppm): 80%; TLB control value (C.V.) ([1]; 50 ppm): 100%; TLB control value (C.V.) ([1]; 100 ppm): 100%; WLR control value (C.V.) ([2]; 2 ppm): 100%; WLR control value (C.V.) ([2]; 10 ppm): 100%; WLR control value (C.V.) ([2]; 50 ppm): 100%; WLR control value (C.V.) ([2]; 100 ppm): 100%; BPM control value (C.V.) ([3]; 2 ppm): 95%; BPM control value (C.V.) ([3]; 10 ppm): 98%; BPM control value (C.V.) ([3]; 50 ppm): 100%; BPM control value (C.V.) ([3]; 100 ppm): 100%; RCB control value (C.V.) ([4]; 2 ppm): 100%; RCB control value (C.V.) ([4]; 10 ppm): 100%; RCB control value (C.V.) ([4]; 50 ppm): 100%; RCB control value (C.V.) ([4]; 100 ppm): 100%; CGM control value (C.V.) [5]: 65%; RSB control value (C.V.) ([6]; 2 ppm): 80%; RSB control value (C.V.) ([6]; 10 ppm): 95%; RSB control value (C.V.) ([6]; 50 ppm): 98%; RSB control value (C.V.) ([6]; 100 ppm): 100%

For `CNC(=O)/C(=N/OC)c1ccccc1COc1ccc(C=C(Cl)Cl)cc1` [Example 4, (E)-2-(2-((4-(2,2-dichlorovinyl)phenoxy)methyl)phenyl)-2-methoxyimino-N-methylacetamide], which pest or weed control at 2 ppm [1] is on record?
Its pest or weed control at 2 ppm is 100%.

What about the pest or weed control at 10 ppm [1] of the same molecule?
Its pest or weed control at 10 ppm is 100%.

And the pest or weed control at 50 ppm [1]?
The pest or weed control at 50 ppm was 100%.

What about the pest or weed control at 100 ppm [1] of the same molecule?
The pest or weed control at 100 ppm was 100%.

And the pest or weed control at 2 ppm ([2]; 2 ppm)?
Its pest or weed control at 2 ppm is 100%.

And the pest or weed control at 10 ppm ([2]; 10 ppm)?
Its pest or weed control at 10 ppm is 100%.

And the pest or weed control at 50 ppm ([2]; 50 ppm)?
Its pest or weed control at 50 ppm is 100%.

What about the pest or weed control at 100 ppm ([2]; 100 ppm) of the same molecule?
Its pest or weed control at 100 ppm is 100%.

What about the pest or weed control at 2 ppm ([3]; 2 ppm) of the same molecule?
Its pest or weed control at 2 ppm is 100%.

What about the pest or weed control at 10 ppm ([3]; 10 ppm) of the same molecule?
The pest or weed control at 10 ppm was 100%.

And the pest or weed control at 50 ppm ([3]; 50 ppm)?
The pest or weed control at 50 ppm was 100%.

And the pest or weed control at 100 ppm ([3]; 100 ppm)?
Its pest or weed control at 100 ppm is 100%.

And the pest or weed control at 2 ppm [4]?
Its pest or weed control at 2 ppm is 100%.

What about the pest or weed control at 10 ppm [4] of the same molecule?
Its pest or weed control at 10 ppm is 100%.

What about the pest or weed control at 50 ppm [4] of the same molecule?
The pest or weed control at 50 ppm was 100%.

And the pest or weed control at 100 ppm [4]?
Its pest or weed control at 100 ppm is 100%.

And the pest or weed control at 100 ppm [5]?
Its pest or weed control at 100 ppm is 75%.

And the pest or weed control at 2 ppm [6]?
The pest or weed control at 2 ppm was 90%.

And the pest or weed control at 10 ppm [6]?
Its pest or weed control at 10 ppm is 98%.

And the pest or weed control at 50 ppm [6]?
The pest or weed control at 50 ppm was 100%.

What about the pest or weed control at 100 ppm [6] of the same molecule?
Its pest or weed control at 100 ppm is 100%.
